According to patent US20090239917A1, “Heterocyclic Cycloalkyl Compounds, a Process for their Preparation and Pharmaceutical Compositions Containing Them” (Les Laboratoires Servier, priority 2006, published 2009):

Test system: ob/ob mouse
Experiment: Antidiabetic and hypolipaemic effect in the ob/ob mouse
Type: in vivo
Text: Mutations in laboratory animals and also different sensitivities to dietary regimens have allowed the development of animal models having non-insulin-dependent diabetes and hyperlipidaemia associated with obesity and with resistance to insulin. Genetic mice models (ob/ob) (Diabetes, 1982, 31 (1), 1-6) and Zucker (fa/fa) rats have been developed by various laboratories in order to understand the physiopathology of those diseases and test the effectiveness of new antidiabetic compounds (Diabetes, 1983, 32, 830-838).
The 10-week-old male ob/ob mouse (Harlan) is used for the in vivo tests. The animals are kept in a light-darkness cycle of 12 hours at 25° C. This mouse has a basal hyperglycaemia of 2 g/l. The animals are randomly selected with regard to their glycaemia to form groups of eight. […] The control group receives the solvents under the same conditions as the treated groups. The activity of the products is evaluated by measuring glycaemia, insulinaemia and triglyceridaemia 24 hours after the final administration and by measuring body weight daily.

[1] = 3 mg/kg oral, once per day for four days, 24 hours after final administration

Structure (SMILES): O=C(c1ccc2c(c1)sc(=O)n2CCOc1ccc(CC(OCC(F)(F)F)C(=O)O)cc1)C1CC1 (stereo not shown) [Example 2, 3-{4-[2-(6-(Cyclopropylcarbonyl)-2-oxo-1,3-benzothiazol-3(2H)-yl)-ethoxy]phenyl}-2-(2,2,2-trifluoroethoxy)propanoic acid]
- reduction of glycaemia vs control mice [1]: 42%
- reduction of insulinaemia vs control mice [1]: 71%
- reduction of triglyceridaemia vs control mice [1]: 45%

Structure (SMILES): O=C(c1ccc2c(c1)sc(=O)n2CCOc1ccc(C[C@H](OCC(F)(F)F)C(=O)[O-])cc1)C1CC1.[Na+] [Example 9, Sodium (S)-3-{4-[2-(6-(cyclopropylcarbonyl)-2-oxo-1,3-benzothiazol-3(2H)-yl)ethoxy]phenyl}-2-(2,2,2-trifluoroethoxy)propanoate]
- reduction in glycaemia (1 mg/kg): 39%
- reduction in insulinaemia (1 mg/kg): 41%
- reduction in the weight gain observed in the ob/ob control mice (1 mg/kg): 14%
- reduction in triglyceridaemia (1 mg/kg): 52%
